“And” between values parts separate entries of the source, which are not always exact repeats. Equal entries are not always repeated. Toxic doses and inconclusive results are not listed. How the source made its calls: active means survival T/C of 150% or more; inactive means T/C below 125% in these data.
Test system: BDF1 mice, B16 melanoma ip, median survival T/C
Test: NCI In Vivo Anticancer Drug Screen. Data for tumor model B16 Melanoma (intraperitoneal) in B6D2F1 (BDF1) mice
Settings: endpoint: median survival time, higher = longer survival
Method in brief: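 The ratio T/C compares compound-treated mice with vehicle-treated controls, using survival or tumor size as the endpoint in a transplantable tumor model.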

[1] = dose: 25.0 mg/kg/injection, schedule: Q01DX009 (ip), vehicle: Klucel (hydroxypropylcellulose) (HPC)
[2] = dose: 50.0 mg/kg/injection, schedule: Q01DX009 (ip), vehicle: Klucel (hydroxypropylcellulose) (HPC)
[3] = dose: 100.0 mg/kg/injection, schedule: Q01DX009 (ip), vehicle: Klucel (hydroxypropylcellulose) (HPC)
[4] = dose: 200.0 mg/kg/injection, schedule: Q01DX009 (ip), vehicle: Klucel (hydroxypropylcellulose) (HPC)
[5] = dose: 100.0 mg/kg/injection, schedule: Q01DX009 (ip), vehicle: saline with Tween-80
[6] = dose: 200.0 mg/kg/injection, schedule: Q01DX009 (ip), vehicle: saline with Tween-80
[7] = dose: 400.0 mg/kg/injection, schedule: Q01DX009 (ip), vehicle: saline with Tween-80

Measured: T/C

CC(C)=C(C=O)CCC(C)C
inactive: dose: 25.0 mg/kg/injection, schedule: Q04DX003 (ip), vehicle: saline with Tween-80 100 % of control | dose: 50.0 mg/kg/injection, schedule: Q04DX003 (ip), vehicle: saline with Tween-80 95 % of control | dose: 100.0 mg/kg/injection, schedule: Q04DX003 (ip), vehicle: saline with Tween-80 97 % of control and 100 % of control

NC(N)=Nc1ccc(C(=O)Oc2ccc([N+](=O)[O-])cc2[N+](=O)[O-])cc1
inactive: [1] 97 % of control | [2] 91 % of control

Nc1cc(N)cc(Cc2ccccc2)c1
inactive: [2] 101 % of control | [3] 93 % of control | [4] 100 % of control

COc1cccc2c1CCC1=C2CC=C2CC3(CCC21C)OCCO3 (centres undefined)
inactive: dose: 100.0 mg/kg/injection, schedule: Q04DX003 (sc), vehicle: steriod suspending solution 104 % of control | dose: 200.0 mg/kg/injection, schedule: Q04DX003 (sc), vehicle: steriod suspending solution 86 % of control | dose: 400.0 mg/kg/injection, schedule: Q04DX003 (sc), vehicle: steriod suspending solution 97 % of control

CCCCCCCCCCCCCCCC(=O)N(C/C=C/CN(C(=O)CCCCCCCCCCCCCCC)C(C)CCCN(CC)CC)C(C)CCCN(CC)CC (centres undefined)
inactive: dose: 3.13 mg/kg/injection, schedule: Q01DX009 (ip), vehicle: other 98 % of control | dose: 6.25 mg/kg/injection, schedule: Q01DX009 (ip), vehicle: other 99 % of control | dose: 12.5 mg/kg/injection, schedule: Q01DX009 (ip), vehicle: other 93 % of control

Cc1cccc(C)c1NC(=O)c1ccccc1C(=O)O
inactive: [5] 97 % of control | [6] 92 % of control | [7] 95 % of control

N#C/C(=C\c1c[nH]c2ccccc12)C(N)=O
inactive: [5] 108 % of control | [6] 108 % of control | [7] 108 % of control

COc1c(CNC(=O)CCl)cc2[nH]c(C)cc2c1CNC(=O)CCl
inactive: dose: 6.25 mg/kg/injection, schedule: Q01DX009 (ip), vehicle: Klucel (hydroxypropylcellulose) (HPC) 101 % of control | dose: 12.5 mg/kg/injection, schedule: Q01DX009 (ip), vehicle: Klucel (hydroxypropylcellulose) (HPC) 106 % of control | [1] 103 % of control | [2] 104 % of control | [3] 108 % of control | [4] 97 % of control

CN1c2c(nc(N)[nH]c2=O)NCC1CCNc1ccc(C(=O)NC(CCC(=O)O)C(=O)O)cc1 (centres undefined)
inactive: [1] 106 % of control | [2] 103 % of control | dose: 50.0 mg/kg/injection, schedule: Q01DX009 (ip), vehicle: sodium bicarbonate 100 % of control | [3] 106 % of control | dose: 100.0 mg/kg/injection, schedule: Q01DX009 (ip), vehicle: sodium bicarbonate 100 % of control | dose: 200.0 mg/kg/injection, schedule: Q01DX009 (ip), vehicle: sodium bicarbonate 95 % of control | dose: 400.0 mg/kg/injection, schedule: Q01DX009 (ip), vehicle: sodium bicarbonate 118 % of control

Cc1cc(=O)[nH]c2c1C(=O)c1c(C)cc(=O)n(C)c1C2=O
inactive: dose: 0.5 mg/kg/injection, schedule: Q04DX003 (ip), vehicle: Klucel (hydroxypropylcellulose) (HPC) 92 % of control | dose: 1.25 mg/kg/injection, schedule: Q04DX003 (ip), vehicle: Klucel (hydroxypropylcellulose) (HPC) 102 % of control | dose: 2.5 mg/kg/injection, schedule: Q04DX003 (ip), vehicle: Klucel (hydroxypropylcellulose) (HPC) 89 % of control

COC1N(C2CC(O)C(CO)O2)C(=O)NC(=O)C1(F)Br (centres undefined)
inactive: dose: 1.56 mg/kg/injection, schedule: Q01DX009 (ip), vehicle: saline 100 % of control | dose: 3.12 mg/kg/injection, schedule: Q01DX009 (ip), vehicle: saline 87 % of control | dose: 5.0 mg/kg/injection, schedule: Q01DX009 (ip), vehicle: saline with Tween-80 106 % of control | dose: 6.25 mg/kg/injection, schedule: Q01DX009 (ip), vehicle: saline 102 % of control | dose: 10.0 mg/kg/injection, schedule: Q01DX009 (ip), vehicle: saline with Tween-80 109 % of control | dose: 12.5 mg/kg/injection, schedule: Q01DX009 (ip), vehicle: saline 108 % of control | dose: 20.0 mg/kg/injection, schedule: Q01DX009 (ip), vehicle: saline with Tween-80 104 % of control | dose: 25.0 mg/kg/injection, schedule: Q01DX009 (ip), vehicle: saline 88 % of control

Cc1ccc(NC(=O)c2ccccc2)cc1[As]=[As]c1cc(NC(=O)c2ccccc2)ccc1C (centres undefined)
inactive: dose: 0.04 mg/kg/injection, schedule: Q01DX009 (ip), vehicle: saline with Tween-80 107 % of control | dose: 0.08 mg/kg/injection, schedule: Q01DX009 (ip), vehicle: saline with Tween-80 102 % of control | dose: 0.08 mg/kg/injection, schedule: Q04DX003 (ip), vehicle: saline 101 % of control | dose: 0.15 mg/kg/injection, schedule: Q01DX009 (ip), vehicle: saline with Tween-80 104 % of control | dose: 0.15 mg/kg/injection, schedule: Q04DX003 (ip), vehicle: saline 91 % of control | dose: 0.16 mg/kg/injection, schedule: Q04DX003 (ip), vehicle: Klucel (hydroxypropylcellulose) (HPC) 101 % of control | dose: 0.3 mg/kg/injection, schedule: Q01DX009 (ip), vehicle: saline with Tween-80 100 % of control | dose: 0.3 mg/kg/injection, schedule: Q04DX003 (ip), vehicle: saline 92 % of control | dose: 0.31 mg/kg/injection, schedule: Q04DX003 (ip), vehicle: Klucel (hydroxypropylcellulose) (HPC) 98 % of control | dose: 0.6 mg/kg/injection, schedule: Q04DX003 (ip), vehicle: saline 91 % of control | dose: 0.63 mg/kg/injection, schedule: Q04DX003 (ip), vehicle: saline with Tween-80 89 % of control | dose: 5.0 mg/kg/injection, schedule: Q04DX003 (ip), vehicle: saline with Tween-80 105 % of control
active: dose: 2.5 mg/kg/injection, schedule: Q04DX003 (ip), vehicle: saline with Tween-80 161 % of control

CCCCCCCCCCCc1n(Cc2ccccc2)cc[n+]1C
inactive: dose: 0.75 mg/kg/injection, schedule: Q01DX009 (ip), vehicle: saline 86 % of control | dose: 1.5 mg/kg/injection, schedule: Q01DX009 (ip), vehicle: saline 90 % of control | dose: 3.0 mg/kg/injection, schedule: Q01DX009 (ip), vehicle: saline 97 % of control

CCCc1ccc(OC)cc1
inactive: dose: 25.0 mg/kg/injection, schedule: Q01DX009 (ip), vehicle: saline with Tween-80 97 % of control | dose: 50.0 mg/kg/injection, schedule: Q01DX009 (ip), vehicle: saline with Tween-80 105 % of control | [5] 90 % of control

CC(=O)OCC12CCC(C)=CC1OC1C(=O)CC2(C)C12CO2 (centres undefined)
inactive: dose: 0.5 mg/kg/injection, schedule: Q01DX009 (ip), vehicle: saline 101 % of control | dose: 1.0 mg/kg/injection, schedule: Q01DX009 (ip), vehicle: saline 110 % of control | dose: 2.0 mg/kg/injection, schedule: Q01DX009 (ip), vehicle: saline 113 % of control | dose: 4.0 mg/kg/injection, schedule: Q01DX009 (ip), vehicle: saline 98 % of control

O=c1[nH]c(-c2ccccc2)c(-c2ccccc2)[nH]1
inactive: [5] 90 % of control | [6] 95 % of control
